Measurements: patent US20230348376A1 (TEIJIN PHARMA LIMITED, priority 2020, published 2023)

Tested on: rat oligodendrocyte progenitor cells
Experiment: Promotive activity of rat oligodendrocyte progenitor cell differentiation-2 (immunostaining of MBP)
Type: cell-based
Settings: vitamin D derivative 2 μM, T3 30 nM, 4 days
Protocol: The promotive activity of oligodendrocyte progenitor cell (OPC) differentiation of the vitamin D derivatives was evaluated by immunostaining of MBP.
Subsequently, oligodendrocyte progenitor cell separation medium was added to the flask, and the mixture was similarly shaken for about 22 hours (37° C., 200 rpm), and the supernatant was collected to prepare oligodendrocyte progenitor cells.

For C=C1[C@H](O)CC(=C/C=C2\CCC[C@]3(C)[C@@H]([C@H](C)CN4CCC[C@H]4C(C)(C)O)CC[C@@H]23)C[C@H]1O [Compound H014, (1R,3R)-5-(2-((1R,3aS,7aR,E)-1-((S)-1-((S)-2-(2-hydroxypropan-2-yl)pyrrolidin-1-yl)propan-2-yl)-7a-methyloctahydro-4H-inden-4-ylidene)ethylidene)-2-methylenecyclohexane-1,3-diol], the “Mean (number of MBP-positive cells/number of Hoechst33342-positive cells)” value (Test 8) was 0.37.

With C[C@H](CN1CCCCC1(C)C)[C@H]1CC[C@H]2/C(=C/C=C3C[C@@H](O)C[C@H](O)C3)CCC[C@]12C [Compound G003, (1R,3R)-5-(2-((1R,3aS,7aR,E)-1-((S)-1-(2,2-dimethylpiperidin-1-yl)propan-2-yl)-7a-methyloctahydro-4H-inden-4-ylidene)ethylidene)cyclohexane-1,3-diol] the “Mean (number of MBP-positive cells/number of Hoechst33342-positive cells)” value (Test 3) was 0.47.

With C=C1[C@H](O)CC(=C/C=C2\CCC[C@]3(C)[C@@H]([C@H](C)CN4CCN(C)C[C@@H]4C)CC[C@@H]23)C[C@H]1O [Compound H011, (1R,3R)-5-(2-((1R,3aS,7aR,E)-1-((S)-1-((S)-2,4-dimethylpiperazin-1-yl)propan-2-yl)-7a-methyloctahydro-4H-inden-4-ylidene)ethylidene)-2-methylenecyclohexane-1,3-diol] the “Mean (number of MBP-positive cells/number of Hoechst33342-positive cells)” value (Test 5) was 0.30.

For C=C1/C(=C\C=C2/CCC[C@]3(C)[C@@H]([C@H](C)CN4CCC[C@@H]4C(C)(C)OC)CC[C@@H]23)C[C@@H](O)C[C@@H]1O [Compound F015, (1R,3S,Z)-5-(2-((1R,3aS,7aR,E)-1-((S)-1-((R)-2-(2-methoxypropan-2-yl)pyrrolidin-1-yl)propan-2-yl)-7a-methyloctahydro-4H-inden-4-ylidene)ethylidene)-4-methylenecyclohexane-1,3-diol], the “Mean (number of MBP-positive cells/number of Hoechst33342-positive cells)” value (Test 8) was 0.35.

For C=C1[C@H](O)CC(=C/C=C2\CCC[C@]3(C)[C@@H]([C@H](C)CN4CCN(C)C[C@H]4C)CC[C@@H]23)C[C@H]1O [Compound H012, (1R,3R)-5-(2-((1R,3aS,7aR,E)-1-((S)-1-((R)-2,4-dimethylpiperazin-1-yl)propan-2-yl)-7a-methyloctahydro-4H-inden-4-ylidene)ethylidene)-2-methylenecyclohexane-1,3-diol], the “Mean (number of MBP-positive cells/number of Hoechst33342-positive cells)” value (Test 7) was 0.28.

For C=C1/C(=C\C=C2/CCC[C@]3(C)[C@@H]([C@H](C)CN4CCCC[C@@H]4C)CC[C@@H]23)C[C@@H](O)C[C@@H]1O [Compound F001, (1R,3S,Z)-5-(2-((1R,3aS,7aR,E)-7a-methyl-1-((S)-1-((S)-2-methylpiperidin-1-yl)propan-2-yl)octahydro-4H-inden-4-ylidene)ethylidene)-4-methylenecyclohexane-1,3-diol], the “Mean (number of MBP-positive cells/number of Hoechst33342-positive cells)” value (Test 7) was 0.29.

With C=C1[C@H](O)CC(=C/C=C2\CCC[C@]3(C)[C@@H]([C@H](C)CN4CCC[C@@H]4C(C)(C)OC)CC[C@@H]23)C[C@H]1O [Compound H015, (1R,3R)-5-(2-((1R,3aS,7aR,E)-1-((S)-1-((R)-2-(2-methoxypropan-2-yl)pyrrolidin-1-yl)propan-2-yl)-7a-methyloctahydro-4H-inden-4-ylidene)ethylidene)-2-methylenecyclohexane-1,3-diol] the “Mean (number of MBP-positive cells/number of Hoechst33342-positive cells)” value (Test 8) was 0.34.

In the case of C=C1/C(=C\C=C2/CCC[C@]3(C)[C@@H]([C@H](C)CN4CCN(C)C[C@H]4C)CC[C@@H]23)C[C@@H](O)C[C@@H]1O [Compound F012, (1R,3S,Z)-5-(2-((1R,3aS,7aR,E)-1-((S)-1-((R)-2,4-dimethylpiperazin-1-yl)propan-2-yl)-7a-methyloctahydro-4H-inden-4-ylidene)ethylidene)-4-methylenecyclohexane-1,3-diol], the “Mean (number of MBP-positive cells/number of Hoechst33342-positive cells)” value (Test 7) is reported as 0.23.

In the case of C=C1/C(=C\C=C2/CCC[C@]3(C)[C@@H]([C@H](C)CN4CCN(C)C[C@@H]4C)CC[C@@H]23)C[C@@H](O)C[C@@H]1O [Compound F011, (1R,3S,Z)-5-(2-((1R,3aS,7aR,E)-1-((S)-1-((S)-2,4-dimethylpiperazin-1-yl)propan-2-yl)-7a-methyloctahydro-4H-inden-4-ylidene)ethylidene)-4-methylenecyclohexane-1,3-diol], the “Mean (number of MBP-positive cells/number of Hoechst33342-positive cells)” value (Test 5) is reported as 0.26.

C=C1/C(=C\C=C2/CCC[C@]3(C)[C@@H]([C@H](C)CN4CCCC[C@H]4C)CC[C@@H]23)C[C@@H](O)C[C@H]1O [Compound I002, (1R,3R,Z)-5-(2-((1R,3aS,7aR,E)-7a-methyl-1-((S)-1-((R)-2-methylpiperidin-1-yl)propan-2-yl)octahydro-4H-inden-4-ylidene)ethylidene)-4-methylenecyclohexane-1,3-diol] was tested, and the “Mean (number of MBP-positive cells/number of Hoechst33342-positive cells)” value (Test 9) was 0.31.

With C[C@H](CN1CCCC[C@@H]1C)[C@H]1CC[C@H]2/C(=C/C=C3C[C@@H](O)C[C@H](O)C3)CCC[C@]12C [Compound G001, (1R,3R)-5-(2-((1R,3aS,7aR,E)-7a-methyl-1-((S)-1-((S)-2-methylpiperidin-1-yl)propan-2-yl)octahydro-4H-inden-4-ylidene)ethylidene)cyclohexane-1,3-diol] the “Mean (number of MBP-positive cells/number of Hoechst33342-positive cells)” value (Test 3) was 0.34.

C[C@H](CCN1CCCC[C@@H]1C)[C@H]1CC[C@H]2/C(=C/C=C3C[C@@H](O)C[C@H](O)C3)CCC[C@]12C [Compound G017, (1R,3R)-5-(2-((1R,3aS,7aR,E)-7a-methyl-1-((R)-4-((S)-2-methylpiperidin-1-yl)butan-2-yl)octahydro-4H-inden-4-ylidene)ethylidene)cyclohexane-1,3-diol] was tested, and the “Mean (number of MBP-positive cells/number of Hoechst33342-positive cells)” value (Test 6) was 0.52.

C[C@H](CN1CCN(C)C[C@H]1C)[C@H]1CC[C@H]2/C(=C/C=C3C[C@@H](O)C[C@H](O)C3)CCC[C@]12C [Compound G012, (1R,3R)-5-(2-((1R,3aS,7aR,E)-1-((S)-1-((R)-2,4-dimethylpiperazin-1-yl)propan-2-yl)-7a-methyloctahydro-4H-inden-4-ylidene)ethylidene)cyclohexane-1,3-diol] was tested, and the “Mean (number of MBP-positive cells/number of Hoechst33342-positive cells)” value (Test 5) was 0.22.

For C=C1/C(=C\C=C2/CCC[C@]3(C)[C@@H]([C@H](C)CN4CCOC[C@@H]4C)CC[C@@H]23)C[C@@H](O)C[C@@H]1O [Compound F004, (1R,3S,Z)-5-(2-((1R,3aS,7aR,E)-7a-methyl-1-((S)-1-((S)-3-methylmorpholino)propan-2-yl)octahydro-4H-inden-4-ylidene)ethylidene)-4-methylenecyclohexane-1,3-diol], the “Mean (number of MBP-positive cells/number of Hoechst33342-positive cells)” value (Test 3) was 0.37.

C=C1/C(=C\C=C2/CCC[C@]3(C)[C@@H]([C@H](C)CN4CCOC[C@@H]4C4CC4)CC[C@@H]23)C[C@@H](O)C[C@@H]1O [Compound F008, (1R,3 S,Z)-5-(2-((1R,3aS,7aR,E)-1-((S)-1-((S)-3-cyclopropylmorpholino)propan-2-yl)-7a-methyloctahydro-4H-inden-4-ylidene)ethylidene)-4-methylenecyclohexane-1,3-diol] was tested, and the “Mean (number of MBP-positive cells/number of Hoechst33342-positive cells)” value (Test 5) was 0.45.

In the case of C=C1/C(=C\C=C2/CCC[C@]3(C)[C@@H]([C@H](C)CN4CCOC[C@H]4C)CC[C@@H]23)C[C@@H](O)C[C@@H]1O [Compound F005, (1R,3S,Z)-5-(2-((1R,3aS,7aR,E)-7a-methyl-1-((S)-1-((R)-3-methylmorpholino)propan-2-yl)octahydro-4H-inden-4-ylidene)ethylidene)-4-methylenecyclohexane-1,3-diol], the “Mean (number of MBP-positive cells/number of Hoechst33342-positive cells)” value (Test 3) is reported as 0.40.

For C=C1[C@H](O)CC(=C/C=C2\CCC[C@]3(C)[C@@H]([C@H](C)CN4CCCC[C@H]4C)CC[C@@H]23)C[C@H]1O [Compound H002, (1R,3R)-5-(2-((1R,3aS,7aR,E)-7a-methyl-1-((S)-1-((R)-2-methylpiperidin-1-yl)propan-2-yl)octahydro-4H-inden-4-ylidene)ethylidene)-2-methylenecyclohexane-1,3-diol], the “Mean (number of MBP-positive cells/number of Hoechst33342-positive cells)” value (Test 9) was 0.39.

With C[C@H](CN1CCC[C@H]1C(C)(C)O)[C@H]1CC[C@H]2/C(=C/C=C3C[C@@H](O)C[C@H](O)C3)CCC[C@]12C [Compound G014, (1R,3R)-5-(2-((1R,3aS,7aR,E)-1-((S)-1-((S)-2-(2-hydroxypropan-2-yl)pyrrolidin-1-yl)propan-2-yl)-7a-methyloctahydro-4H-inden-4-ylidene)ethylidene)cyclohexane-1,3-diol] the “Mean (number of MBP-positive cells/number of Hoechst33342-positive cells)” value (Test 6) was 0.44.

For C[C@H](CCN1CCCC[C@H]1C)[C@H]1CC[C@H]2/C(=C/C=C3C[C@@H](O)C[C@H](O)C3)CCC[C@]12C [Compound G018, (1R,3R)-5-(2-((1R,3aS,7aR,E)-7a-methyl-1-((R)-4-((R)-2-methylpiperidin-1-yl)butan-2-yl)octahydro-4H-inden-4-ylidene)ethylidene)cyclohexane-1,3-diol], the “Mean (number of MBP-positive cells/number of Hoechst33342-positive cells)” value (Test 6) was 0.48.

For COC(C)(C)[C@@H]1CCCN1C[C@@H](C)[C@H]1CC[C@H]2/C(=C/C=C3C[C@@H](O)C[C@H](O)C3)CCC[C@]12C [Compound G016, (1R,3R)-5-(2-((1R,3aS,7aR,E)-1-((S)-1-((S)-2-(2-methoxypropan-2-yl)pyrrolidin-1-yl)propan-2-yl)-7a-methyloctahydro-4H-inden-4-ylidene)ethylidene)cyclohexane-1,3-diol], the “Mean (number of MBP-positive cells/number of Hoechst33342-positive cells)” value (Test 7) was 0.37.

C=C1[C@H](O)CC(=C/C=C2\CCC[C@]3(C)[C@@H]([C@H](C)CN4CCC[C@@H]4C(C)(C)O)CC[C@@H]23)C[C@H]1O [Compound H013, (1R,3R)-5-(2-((1R,3aS,7aR,E)-1-((S)-1-((R)-2-(2-hydroxypropan-2-yl)pyrrolidin-1-yl)propan-2-yl)-7a-methyloctahydro-4H-inden-4-ylidene)ethylidene)-2-methylenecyclohexane-1,3-diol] was tested, and the “Mean (number of MBP-positive cells/number of Hoechst33342-positive cells)” value (Test 8) was 0.35.
